Experiments:
[1] = tested on: adjuvant-induced arthritis in male Lewis rats; details: cited from earlier work
[2] = tested on: carrageenan-induced thermal hyperalgesia in male SD rats; details: orally administered; cited from earlier work
[3] = plasma pharmacokinetics in healthy male subjects, multiple dose (loading plus daily maintenance dose, 8 days); format: in vivo, human
Text: By assuming an elimination half-life of 4 to 5 days for Compound A, were designed multiple dosing regimens by which steady state plasma concentrations of Compound A are rapidly reached and maintained throughout the dosing period. […] Although only two examples of dosing regimens involving a combination of loading dose and daily maintenance dose are provided in Table 3, it is not intended to limit the dosing regimens of this invention only to those provided in Table 3. Obviously, variations in the loading dose and consequent the daily maintenance dose levels may be conceived depending on indications of subjects. For example a loading dose of 2 mg may be used in combination with a daily maintenance dose of about 0.25 mg/day.
The dosing regimens of the instant invention were tested in healthy human male subjects. Table 4 provides mean pre-dose plasma levels of Compound A following oral administrations of capsule drug products containing Compound A according to either Regimen A or Regimen B of Table 3 daily once for 8 days. In both dosing regimens, the pre-dose plasma levels remained almost constant.

clinical = details: male, human, plasma, po
[4] = plasma pharmacokinetics in healthy male subjects, single oral dose of capsule drug product

COc1ccc2c(c1)c(CC(=O)O)c(C)n2C(=O)c1ccc(Cl)cc1 [indomethacin, reference compound]
ED50 by adjuvant-induced arthritis [1]: 0.3 mg/kg/day
ED50 in carrageenan-induced thermal hyperalgesia [2]: ~1.0 mg/kg

CC1(C)OC(c2ccc(S(N)(=O)=O)cc2)=C(c2cccc(F)c2)C1=O [Compound A, 5-{4-(aminosulfonyl)phenyl}-2,2-dimethyl-4-(3-fluorophenyl)-3(2H)furanone]
Mean Pre-dose Plasma Level ([3]; Regimen A (3 mg loading, 0.4 mg/day maintenance), Day 2): 3.8 ng/mL
drug accumulation from the multiple dosings ([3]; Regimen A and Regimen B, daily once for 8 days): no suggestions of drug accumulation
Mean Pre-dose Plasma Level ([3]; Regimen A, Day 1 (before loading dose)): 0 ng/mL
Mean Pre-dose Plasma Level ([3]; Regimen A, Day 3): 4.2 ng/mL
Mean Pre-dose Plasma Level ([3]; Regimen A, Day 4): 4.0 ng/mL
Mean Pre-dose Plasma Level ([3]; Regimen A, Day 5): 4.7 ng/mL
Mean Pre-dose Plasma Level ([3]; Regimen A, Day 6): 4.5 ng/mL
Mean Pre-dose Plasma Level ([3]; Regimen A, Day 7): 3.6 ng/mL
Mean Pre-dose Plasma Level ([3]; Regimen A, Day 8): 3.6 ng/mL
Mean Pre-dose Plasma Level ([3]; Regimen A, Day 9 (no dose)): 4.0 ng/mL
Mean Pre-dose Plasma Level ([3]; Regimen B (6 mg loading, 0.8 mg/day maintenance), Day 2): 6.2 ng/mL
Mean Pre-dose Plasma Level ([3]; Regimen B, Day 1 (before loading dose)): 0 ng/mL
Mean Pre-dose Plasma Level ([3]; Regimen B, Day 3): 6.2 ng/mL
Mean Pre-dose Plasma Level ([3]; Regimen B, Day 4): 6.3 ng/mL
Mean Pre-dose Plasma Level ([3]; Regimen B, Day 5): 6.5 ng/mL
Mean Pre-dose Plasma Level ([3]; Regimen B, Day 6): 6.3 ng/mL
Mean Pre-dose Plasma Level ([3]; Regimen B, Day 7): 6.6 ng/mL
Mean Pre-dose Plasma Level ([3]; Regimen B, Day 8): 7.1 ng/mL
Mean Pre-dose Plasma Level ([3]; Regimen B, Day 9 (no dose)): 6.6 ng/mL
half-life ([3]; male, human, plasma, oral, Regimen A and Regimen B, after 8 days of daily once dosing, read-out: mean elimination half-lives following the last dosing): 96 to 120 h
ED50 by adjuvant-induced arthritis [1]: 0.1 mg/kg/day
ED50 in carrageenan-induced thermal hyperalgesia [2]: 0.25 mg/kg
half-life (clinical): 77 to 135 h
Cmax (clinical; 1 mg): 1.65 ng/mL
Cmax (clinical; 5 mg): 7.82 ng/mL
Cmax (clinical; 8 mg): 13.3 ng/mL
Cmax (clinical; 12 mg): 18.1 ng/mL
Terminal Elimination Half-life ([4]; single oral dose 5 mg (Group 2)): 118 ± 66 h
Terminal Elimination Half-life ([4]; single oral dose 8 mg (Group 3)): 77 ± 8 h
Terminal Elimination Half-life ([4]; single oral dose 12 mg (Group 4)): 135 ± 24 h
dose dependence of Cmax ([4]; single oral dose 1 to 12 mg): increased essentially dose proportionally
